From US12358959B2, “Compositions and methods for oligodendrocyte development” (CHILDREN'S MEDICAL CENTER CORPORATION, priority 2016, dated 2025)
Entries after “also recorded” stand apart in the source; their conditions may differ.

Assays:
[1] = test system: RhoA; test: GTP-Rho pull-down assay in HEK 293T cell pellets; format: cell-based; settings: 10 min, HEK 293T transfected with mouse Gpr56
Protocol: (§1) HEK 293T cells were transiently transfected with mouse Gpr56 cDNA. Twenty-four hours after transfection, the cells were subject to serum starvation for 36 hr followed by the addition of recombinant TG2 250 nM with/without recombinant laminin-111 12.5 nM, or acetic acid as control for 10 min. The conditioned media were harvested, filtered, and concentrated as previously described. Equal volumes of the concentrated media were used for Western blot (Luo et al., PLOS One 9, e100043, 2014), while the cell pellets were used for GTP-Rho pull-down assay.
The corpus callosums (CCs) were dissected under a Leica stereo microscope (MZ 6; Leica™ Pte Ltd.), followed by washes in PBS and lysis in ice-cold RIPA buffer (1% Nonidet P-40, 50 mM Tris pH 7.6, 120 mM NaCl, 1 mM EDTA) containing protease inhibitor cocktail set 1 (Calbiochem). The lysates were cleared of insoluble materials by centrifugation at 16,000×g for 10 min at 4° C. Protein concentration was determined by a Bio-Rad protein assay method (Bio-Rad) according to the manufacturer's protocol, and equal amounts of protein were used for SDS-PAGE and western blot analysis. The GTP-Rho pull-down assay was performed as previously described (Luo et al., Proc Natl Acad Sci USA 108, 12925-12930, 2011). […] Bound Rho proteins were eluted by Laemmli sample buffer and detected by western blot using mouse monoclonal anti-RhoA antibody (Cytoskeleton).

[2] = biological target: T1, GPR56 (Mus musculus, UniProt Q8K209); test: TG2 activation assay: GPR56 NTF released into supernatant of HEK 293T cells (Western blot); format: cell-based; settings: 10 min, HEK 293T transfected with mouse Gpr56
T1 construct: expressed in transfected cells; host or cells: HEK 293T
T1 sequence (Q8K209 26-687): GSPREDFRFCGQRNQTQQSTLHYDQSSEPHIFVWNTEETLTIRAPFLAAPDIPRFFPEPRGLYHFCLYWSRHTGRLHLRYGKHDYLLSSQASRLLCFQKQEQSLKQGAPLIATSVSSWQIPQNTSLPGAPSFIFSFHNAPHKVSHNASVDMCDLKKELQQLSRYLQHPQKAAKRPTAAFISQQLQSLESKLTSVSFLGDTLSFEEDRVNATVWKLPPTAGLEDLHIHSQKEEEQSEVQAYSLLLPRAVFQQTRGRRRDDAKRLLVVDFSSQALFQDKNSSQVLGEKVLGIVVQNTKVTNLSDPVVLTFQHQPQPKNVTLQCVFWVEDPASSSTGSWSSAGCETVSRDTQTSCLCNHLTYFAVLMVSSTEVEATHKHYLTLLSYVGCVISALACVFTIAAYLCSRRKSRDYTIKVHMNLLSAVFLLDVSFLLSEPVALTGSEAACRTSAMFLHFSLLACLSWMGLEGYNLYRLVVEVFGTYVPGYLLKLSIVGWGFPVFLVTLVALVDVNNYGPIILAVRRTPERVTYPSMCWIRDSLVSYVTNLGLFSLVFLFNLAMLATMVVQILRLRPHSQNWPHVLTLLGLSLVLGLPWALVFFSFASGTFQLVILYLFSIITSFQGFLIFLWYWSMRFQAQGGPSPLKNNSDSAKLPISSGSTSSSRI
Protocol: as §1

[3] = test system: cerebellar slices; test: Remyelination of LPC-demyelinated cerebellar slice cultures; format: cell-based, mouse; settings: Gpr56+/+;Tgm2−/− cerebellar slices, LPC 24 hr, 4 days of remyelination, TG2 20 nM; listed as Recombinant TG2
Excerpt: FIG. 12D provides composite images created in Image J showing myelinated axons (black) for quantification. FIG. 12E is a graph showing percentage of myelinated axons after remyelination. Remyelination was reduced in cerebellar slices that lacked OPC-derived GPR56. *P=0.0135, paired t-test, N=5 per genotype. FIG. 12F provides representative images of cerebellar slice cultures from P10 Gpr56^+/+; Tgm2^−/− and Gpr56^−/−; Tgm2^−/− mouse cerebella that were demyelinated with LPC for 24 hr followed by 4 days of remyelination in the presence or absence of TG2 (20 nM). Slices were immunostained with NF200 (white) and MBP (light gray); myelinated fibers appear yellow in merged images. Scale bar, 100 μm.
Gpr56^fl/fl;PdgfrαCreER^− and Gpr56^fl/fl;PdgfrαCreER^+ P7 pups were injected with tamoxifen (50 mg kg^−1) for 3 days before the cerebellar harvesting. All cerebella were harvested on P10 and placed in ice-cold Hank's buffer (Fisher Scientific) before being cut into 300 μm thick sagittal sections with a vibratome (Leica Biosystems). Three slices were placed onto inserts (Millicell 0.4 μm, Millipore) in media containing 50% MEM, 25% Horse Serum, 25% Hank's Buffer, 1% GlutaMax, 5 mg/ml Glucose. […] Quantification of myelinated fibers was performed using Image J by subtracting background and applying threshold for both red and green channel, before measuring both myelinated and unmyelinated axon fibers.

[4] = TG2 250 nM with laminin-111 12.5 nM

Transglutaminase 2 [TG2]
Relative level of GTP-RhoA to total RhoA ([1]; TG2 250 nM alone vs control): n.s.
Relative level of GTP-RhoA to total RhoA [1, 4]: activating RhoA downstream signaling
Released GPR56 NTF in supernatant ([2]; TG2 250 nM alone vs control): n.s.
Released GPR56 NTF in supernatant [2, 4]: removed the GPR56 NTF
Remyelination (percentage of myelinated axons) [3]: rescued remyelination failure; also recorded: promotes remyelination
